Data from the CheMixHub ionic liquid set.
Several values for one entry are separate records, joined by “and”; a condition that tells them apart may be missing. Equal entries are not always repeated. ± gives the uncertainty stated by the source.

Assay: xn = mol fraction of the nth substance listed

CC(C)O + O + CCCCCCCCCCCCOS(=O)(=O)[O-].[Na+]
298 K, 100 kPa, frequency 0.001 MHz
Conditions	electrical conductivity [S/m]
x1 = 0.01509, x3 = 0	0.00013
x1 = 0.02546, x2 = 0.9745	0.00014

CCCCCCCCn1cc[n+](C)c1.[Br-] + O + CCCCCCCCn1cc[n+](C)c1.F[B-](F)(F)F
298.15 K, 101 kPa
Conditions	electrical conductivity [S/m]
x1 = 0.0002342, x3 = 5.406e-05	0.15 ± 0.01
x1 = 0.001691, x3 = 0.0003242	0.8 ± 0.02
x1 = 0.002265, x3 = 0.0004503	0.99 ± 0.02
x1 = 0.002803, x3 = 0.0005403	1.11 ± 0.02
x1 = 0.00343, x3 = 0.0006663	1.24 ± 0.03
x1 = 0.004413, x3 = 0.0008642	1.37 ± 0.03
x1 = 0.004913, x3 = 0.0009541	1.45 ± 0.03

CCCCCCCCn1cc[n+](C)c1.[Br-] + O + CCCCCC[n+]1ccn(C)c1.[Br-]
electrical conductivity, 101.3 kPa
Conditions	x2 = 0.8977, x1 = 0.04147	x2 = 0.8977, x1 = 0.06092	x2 = 0.8993, x1 = 0.02123	x2 = 0.8993, x1 = 0.07955	x2 = 0.9473, x1 = 0.02113	x2 = 0.9473, x1 = 0.03155	x2 = 0.9477, x1 = 0.01078	x2 = 0.9477, x1 = 0.04155
293.15 K	3.55 S/m and 3.56 S/m and 3.57 S/m	3.41 S/m and 3.44 S/m (2×)	3.68 S/m and 3.69 S/m	3.3 S/m and 3.31 S/m and 3.32 S/m	3.98 S/m and 4 S/m and 4.01 S/m	3.83 S/m and 3.85 S/m and 3.87 S/m	4.14 S/m (2×) and 4.16 S/m	3.7 S/m and 3.71 S/m and 3.72 S/m
298.15 K	4.11 S/m and 4.12 S/m	3.95 S/m and 3.96 S/m and 3.98 S/m	4.25 S/m and 4.26 S/m	3.81 S/m and 3.83 S/m and 3.84 S/m	4.56 S/m and 4.6 S/m and 4.61 S/m	4.4 S/m and 4.44 S/m (2×)	4.74 S/m and 4.76 S/m and 4.77 S/m	4.25 S/m and 4.26 S/m and 4.28 S/m
303.15 K	4.67 S/m and 4.68 S/m and 4.7 S/m	4.51 S/m and 4.52 S/m and 4.54 S/m	4.85 S/m (2×) and 4.86 S/m	4.36 S/m and 4.37 S/m and 4.38 S/m	5.21 S/m and 5.22 S/m and 5.24 S/m	5.01 S/m and 5.03 S/m and 5.05 S/m	5.39 S/m and 5.4 S/m and 5.42 S/m	4.84 S/m and 4.86 S/m and 4.87 S/m

CCOP(=O)([O-])OCC.CC[n+]1ccn(C)c1 + O + CS(C)=O
viscosity [mPa·s], 100 kPa
Conditions	293.15 K	303.15 K	313.15 K	323.15 K
x2 = 0.004, x3 = 0.497	–	53 ± 10	–	–
x2 = 0.005, x3 = 0.768	–	–	9.6 ± 3.4	7.1 ± 2
x2 = 0.008, x3 = 0.886	5.9	–	3.5 ± 1.5	2.9 ± 1

CCCC[N+]1(C)CCCC1.O=S(=O)([N-]S(=O)(=O)C(F)(F)F)C(F)(F)F + O=C1CCCO1
100 kPa
Conditions	electrical conductivity [S/m]	viscosity [mPa·s]
303.15 K, x2 = 0.2019	0.461 ± 0.014	36.7 ± 1.5
308.15 K, x2 = 0.1075	0.459 ± 0.014	39.2 ± 1.6
308.15 K, x2 = 0.3004	0.638 ± 0.019	23.93 ± 0.97
308.15 K, x2 = 0.9498	1.31 ± 0.039	–
313.15 K, x2 = 0.7009	1.67 ± 0.05	5.75 ± 0.23
313.15 K, x2 = 0.9498	1.41 ± 0.042	–
318.15 K, x2 = 0.2019	0.705 ± 0.021	22.28 ± 0.9
318.15 K, x2 = 0.8509	2.23 ± 0.067	–
318.15 K, x2 = 0.9498	1.5 ± 0.045	–
323.15 K, x2 = 0.3004	0.905 ± 0.027	15.24 ± 0.62
323.15 K, x2 = 0.5999	1.57 ± 0.047	6.44 ± 0.26
323.15 K, x2 = 0.7009	1.98 ± 0.059	4.7 ± 0.19
323.15 K, x2 = 0.9498	1.6 ± 0.048	–

CC[N+](C)(CC)CCOC.O=S(=O)([N-]S(=O)(=O)C(F)(F)F)C(F)(F)F + O=C1CCCO1
101 kPa
Conditions	electrical conductivity [S/m]	viscosity [mPa·s]
288.15 K, x1 = 0.1004	1.07 ± 0.011	5.77 ± 0.12
288.15 K, x1 = 0.2006	1.05 ± 0.011	8.69 ± 0.18
288.15 K, x1 = 0.4998	0.504 ± 0.01	39.28 ± 0.84
288.15 K, x1 = 0.6002	0.42 ± 0.01	63.7 ± 1.4
293.15 K, x1 = 0.1004	1.18 ± 0.012	4.642 ± 0.099
293.15 K, x1 = 0.3003	0.925 ± 0.01	12.34 ± 0.26
293.15 K, x1 = 0.4998	0.589 ± 0.01	30.79 ± 0.66
293.15 K, x1 = 1	0.184 ± 0.01	162.2 ± 6.7
298.15 K, x1 = 0.1004	1.305 ± 0.013	3.697 ± 0.079
298.15 K, x1 = 0.4007	0.841 ± 0.01	15.12 ± 0.32
303.15 K, x1 = 0.6999	0.592 ± 0.01	39.92 ± 0.85
303.15 K, x1 = 1	0.301 ± 0.01	89.7 ± 2.4
308.15 K, x1 = 0.3003	1.28 ± 0.013	7.61 ± 0.16
308.15 K, x1 = 0.4007	1.08 ± 0.011	10.57 ± 0.23
308.15 K, x1 = 0.4998	0.904 ± 0.01	15.55 ± 0.33
308.15 K, x1 = 0.9003	0.463 ± 0.01	51.6 ± 1
313.15 K, x1 = 0.1004	1.644 ± 0.016	1.923 ± 0.041
313.15 K, x1 = 0.2006	1.76 ± 0.018	3.958 ± 0.084
313.15 K, x1 = 0.8001	0.676 ± 0.01	30.48 ± 0.65
318.15 K, x1 = 0.6002	1.021 ± 0.01	14.49 ± 0.31
323.15 K, x1 = 0.2006	2.07 ± 0.021	2.954 ± 0.063
323.15 K, x1 = 0.4007	1.5 ± 0.015	6.43 ± 0.14
323.15 K, x1 = 0.4998	1.29 ± 0.013	8.64 ± 0.18
323.15 K, x1 = 0.6002	1.145 ± 0.011	11.6 ± 0.3
328.15 K, x1 = 0.6002	1.28 ± 0.013	9.45 ± 0.2
328.15 K, x1 = 1	0.706 ± 0.01	26.35 ± 0.56
333.15 K, x1 = 0.4007	1.812 ± 0.018	4.73 ± 0.1
333.15 K, x1 = 1	0.816 ± 0.01	21.31 ± 0.45
343.15 K, x1 = 0.3003	2.44 ± 0.024	2.72 ± 0.058
343.15 K, x1 = 0.4998	1.926 ± 0.019	4.472 ± 0.095
348.15 K, x1 = 0.4007	2.346 ± 0.023	3.095 ± 0.066
348.15 K, x1 = 0.6999	1.68 ± 0.017	5.09 ± 0.11
348.15 K, x1 = 0.9003	1.328 ± 0.013	9.11 ± 0.19
353.15 K, x1 = 0.2006	3.09 ± 0.031	1.361 ± 0.029
353.15 K, x1 = 0.3003	2.85 ± 0.029	2.11 ± 0.045
353.15 K, x1 = 0.6002	2.05 ± 0.02	3.425 ± 0.073
353.15 K, x1 = 0.9003	1.46 ± 0.015	7.16 ± 0.15
